Measured values from patent US7332513B2, “Thiazole-based nitric oxide donors having acyl substituent(s) and uses thereof” (priority 2004, dated 2008).

Tested on: anesthetized hypertensive Sprague-Dawley male rats
Assay: Hypotensive effects: mean arterial pressure after iv bolus in phenylephrine-treated rats
Assay type: in vivo, rat
Details: rats pre-treated in vivo with phenylephrine; iv bolus 10-100 micrograms
Source text: These techniques were also used to detect tolerance induction by the NO-donors of the present invention and by GTN. For c-GMP levels and tolerance development, the rat's thoracic aorta was isolated after exposure to the tested compound in vivo, and measured as described above in the in vitro assays.
Mean arterial pressure (MAP) was monitored and determined during bolus infusion of Pet-2, Pet-3, Pet-7, Pet-8, Pet-12 and Pet-13. Briefly, polyethylene catheters (PE50) were inserted into the carotid artery and into the jugular vein of anesthetized hypertensive Sprague-Dawley male rats (200-300 grams). A blood pressure recorder was placed within the carotid artery. Phenylephrine (0.1 mg) was then injected and the mean arterial blood pressure (MABP) was monitored continuously until a stable baseline was reached. The hypotensive effects of intravenous (iv) bolus doses (0.1 mg of each tested compound) administered intravenously at the jugular vein in minimal volume of vehicle (0.2 ml per dose) were evaluated. Five minutes were allowed between each dose, during which the maximal decrease in MAP was recorded and a dose-response graph comparing the hypotensive effect of the compounds was constructed.

## Cc1nc(CCCCc2nc(C)c(CCO[N+](=O)[O-])s2)sc1CCO[N+](=O)[O-] [Pet-13]
  hypotensive / vasorelaxation effect on heightened mean arterial blood pressure: vasorelaxation effect
